Legend:
[1] = system: skin fibroblasts; assay: Collagen synthesis in vitro (radioproline incorporation) in skin fibroblasts; format: cell-based, human; conditions: lipoic acid 0 to 5 μg/ml (FIG. 5), proanthocyanidin vs control (FIG. 6)
Protocol: Rat skin fibroblasts and NIH 3T3 cells were used to measure collagen synthesis in vitro. Cells at a density of 100×10^3 in 24-well-plates were grown with 10% FBS/DMEM (Irvine Scientific, CA) supplemented with different doses of lipoic acid (0-16 μg/ml). Cells were incubated at 37° C. in a 5% CO2 environment for 24 hours. Medium was changed into labeling medium for another 24 hours (50 μCi/ml [^3H]proline, 25 μg/ml ascorbic acid, 25 μg/ml β-aminoproprionitrile (β-APN)). Collagen synthesis from cultured cells was assayed as previously described (B. Han et al. (2003), supra). Briefly, cells and medium were acidified with glacial acetic acid to a final concentration of 0.5 M and pepsin (Worthington) added to a final concentration of 0.5 mg/ml. Plates were shaken overnight at 4° C., collagen precipitated with 4.0 M NaCl and pellets washed with 20% cold ethanol 3 times. Pellets were dissolved with 0.5 M acetic acid and counted with a scintillation counter (Beckman)

[2] = system: lipid peroxidation; conditions: old rats, diet supplemented with lipoic acid; cited from earlier work
[3] = system: rat hepatocytes; conditions: older rats, 2-week dietary supplementation prior to hepatocyte isolation; cited from earlier work
[4] = system: skin fibroblasts; assay: Cell proliferation assay (thymidine incorporation); format: cell-based, human; conditions: vs control; FIG. 6
Protocol: NIH 3T3 fibroblasts were cultured in DMEM containing 10% fetal bovine serum in 24-well plates at a density of 80×10^3. After overnight attachment, medium was changed to a conditioning medium with different dosages of lipoic acid (20 ng-20 μg). DNA content was assayed after 48 hours in culture. Briefly, cells were trypsinized with 0.25% trypsin-EDTA and pelleted by centrifugation. To the cell pellet, 1.5 ml of cold 10 mM EDTA (pH 12.3) was added to solubilize cells. After neutralizing with 1.0 M KH2PO4 (140 μl) and mixing with 0.5 ml of 100 mM NaCl/10 mM Tris (pH 7.0), 10 μl of 66.7 μg/ml Hoechst 33258 (Sigma) was added to give fluorescent readings at emissions of 350 nm and 450 nm. Cell numbers were obtained by comparing the reading to a standard curve of cellular DNA (1×10^4 to 1×10^6 fibroblast). [^3H]Thymidine incorporation into DNA was performed as previously described (B. Han et al., “Proanthocyanidin: A Natural Crosslinking Reagent for Stabilizing Collagen Matrices,” J. Biomed. Mater. Res. 65A: 118-24 (2003)).

[5] = topical application, hairless mice; reduced in the process to dihydrolipoic acid; cited from earlier work

O=C(O)CCCC[C@@H]1CCSS1 (stereo in doubt) [lipoic acid, 1,2-dithiolane-3-pentanoic acid]
collagen synthesis in vitro (incorporation of radioproline) [1]: increased | levels of malondialdehyde, an indicator of lipid peroxidation [2]: reduced | age-associated effects on ascorbic acid metabolism [3]: almost completely reversed

proanthocyanidin
collagen synthesis in vitro (incorporation of radioproline) [1]: increased | cellular proliferation (incorporation of thymidine) [4]: increase in cellular proliferation

O=C(O)CCCC[C@@H]1CCSS1 (racemic) [lipoic acid, 1,2-dithiolane-3-pentanoic acid]
penetration across the skin barrier [5]: effectively penetrate across the skin barrier
